Tests used:
morningglory [1] = assay: Test A preemergence; assay type: in vivo, Ipomoea spp.; details: for Morningglory plant response rating (0 to 100 scale): 125 g ai/ha; for Morningglory plant response rating: 500 g ai/ha, 0 to 100 scale where 0 is no effect and 100 is complete control
Outline: (§1)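 Compounds in non-phytotoxic solvent with surfactant applied as soil spray preemergence, or postemergence to plants 2-10 cm at one- to two-leaf stage, in loam/sand. After approximately 10 days in greenhouse, injury rated visually versus untreated controls, 0 (no effect) to 100 (complete control).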

pigweed [2] = assay: Test A postemergence; assay type: in vivo, Amaranthus retroflexus; details: 0 to 100 scale where 0 is no effect and 100 is complete control; for Pigweed plant response rating: 125 g ai/ha; for Plant response rating, Pigweed: 500 g ai/ha
Outline: as §1

morningglory [3] = assay: Test A postemergence; assay type: in vivo, Ipomoea spp.; details: 0 to 100 scale where 0 is no effect and 100 is complete control; for Morningglory plant response rating: 125 g ai/ha; for Plant response rating, Morningglory: 500 g ai/ha
Outline: as §1

corn [4] = assay: Test A postemergence; assay type: in vivo, Zea mays; details: 0 to 100 scale where 0 is no effect and 100 is complete control; for Corn plant response rating: 125 g ai/ha; for Plant response rating, Corn: 500 g ai/ha
Outline: as §1

barnyardgrass [5] = assay: Test C flooded paddy test; assay type: in vivo, Echinochloa crus-galli; details: Flood, scale 0 to 100 (0 no effect, 100 complete control), 13 to 15 days
From the text: (§2) At time of treatment, test pots were flooded to 3 cm above the soil surface, treated by application of test compounds directly to the paddy water, and then maintained at that water depth for the duration of the test. Treated plants and controls were maintained in a greenhouse for 13 to 15 days, after which time all species were compared to controls and visually evaluated. […] A dash (-) response means no test result.

barnyardgrass [6] = assay: Test A preemergence; assay type: in vivo, Echinochloa crus-galli; details: for Barnyardgrass plant response rating (0 to 100 scale, 0 is no effect, 100 is complete control): 125 g ai/ha; for Barnyardgrass plant response rating: 500 g ai/ha, 0 to 100 scale where 0 is no effect and 100 is complete control
Outline: as §1

wheat [7] = assay: Test A preemergence; assay type: in vivo, Triticum aestivum; details: for Wheat plant response rating (0 to 100 scale): 125 g ai/ha; for Wheat plant response rating: 500 g ai/ha, 0 to 100 scale where 0 is no effect and 100 is complete control
Outline: as §1

wheat [8] = assay: Test A postemergence; assay type: in vivo, Triticum aestivum; details: 0 to 100 scale where 0 is no effect and 100 is complete control; for Wheat plant response rating: 125 g ai/ha; for Plant response rating, Wheat: 500 g ai/ha
Outline: as §1

ducksalad = assay: Test C flooded paddy test; assay type: in vivo, Heteranthera limosa; details: Flood, scale 0 to 100 (0 no effect, 100 complete control), 13 to 15 days
From the text: as §2

Heteranthera limosa = assay: Test B flooded paddy test; assay type: in vivo; details: Flood, 250 g ai/ha; 0 to 100 scale where 0 is no effect and 100 is complete control
Outline: (§3)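 2-leaf stage plants; pots flooded to 3 cm, compound added to paddy water, depth maintained. Greenhouse 13–15 d. Visual rating vs untreated controls, 0 (no effect) to 100 (complete control); dash = no result.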

rice [9] = assay: Test B flooded paddy test; assay type: in vivo, Oryza sativa; details: Flood, 250 g ai/ha; 0 to 100 scale where 0 is no effect and 100 is complete control
Outline: as §3

pigweed [10] = assay: Test A preemergence; assay type: in vivo, Amaranthus retroflexus; details: for Pigweed plant response rating (0 to 100 scale): 125 g ai/ha; for Pigweed plant response rating: 500 g ai/ha, 0 to 100 scale where 0 is no effect and 100 is complete control
Outline: as §1

corn [11] = assay: Test A preemergence; assay type: in vivo, Zea mays; details: for Corn plant response rating (0 to 100 scale): 125 g ai/ha; for Corn plant response rating: 500 g ai/ha, 0 to 100 scale where 0 is no effect and 100 is complete control
Outline: as §1

sedge, umbrella [12] = assay: Test C flooded paddy test; assay type: in vivo, Cyperus difformis; details: Flood, scale 0 to 100 (0 no effect, 100 complete control), 13 to 15 days
From the text: as §2

large (Lg) crabgrass [13] = assay: Test A postemergence; assay type: in vivo, Digitaria sanguinalis; details: 0 to 100 scale where 0 is no effect and 100 is complete control; for Crabgrass, Large plant response rating: 125 g ai/ha; for Plant response rating, Crabgrass, Large: 500 g ai/ha
Outline: as §1

barnyardgrass [14] = assay: Test A postemergence; assay type: in vivo, Echinochloa crus-galli; details: 0 to 100 scale where 0 is no effect and 100 is complete control; for Barnyardgrass plant response rating: 125 g ai/ha; for Plant response rating, Barnyardgrass: 500 g ai/ha
Outline: as §1

velvetleaf [15] = assay: Test A preemergence; assay type: in vivo, Abutilon theophrasti; details: for Velvetleaf plant response rating (0 to 100 scale): 125 g ai/ha; for Velvetleaf plant response rating: 500 g ai/ha, 0 to 100 scale where 0 is no effect and 100 is complete control
Outline: as §1

large (Lg) crabgrass [16] = assay: Test A preemergence; assay type: in vivo, Digitaria sanguinalis; details: for Crabgrass, Large plant response rating (0 to 100 scale): 125 g ai/ha; for Crabgrass, Large plant response rating: 500 g ai/ha, 0 to 100 scale where 0 is no effect and 100 is complete control
Outline: as §1

rice [17] = assay: Test C flooded paddy test; assay type: in vivo, Oryza sativa; details: Flood, scale 0 to 100 (0 no effect, 100 complete control), 13 to 15 days
Outline: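 Under a constant 3 cm flood, test compounds went directly into the paddy water. Following 13 to 15 days of greenhouse growth, treated species and controls were compared by eye.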

barnyardgrass [18] = assay: Test B flooded paddy test; assay type: in vivo, Echinochloa crus-galli; details: Flood, 250 g ai/ha; 0 to 100 scale where 0 is no effect and 100 is complete control
Outline: as §3

velvetleaf [19] = assay: Test A postemergence; assay type: in vivo, Abutilon theophrasti; details: 0 to 100 scale where 0 is no effect and 100 is complete control; for Velvetleaf plant response rating: 125 g ai/ha; for Plant response rating, Velvetleaf: 500 g ai/ha
Outline: as §1

giant foxtail [20] = assay: Test A postemergence; assay type: in vivo, Setaria faberii; details: 0 to 100 scale where 0 is no effect and 100 is complete control; for Foxtail, Giant plant response rating: 125 g ai/ha; for Plant response rating, Foxtail, Giant: 500 g ai/ha
Outline: as §1

giant foxtail [21] = assay: Test A preemergence; assay type: in vivo, Setaria faberii; details: for Foxtail, Giant plant response rating (0 to 100 scale): 125 g ai/ha; for Foxtail, Giant plant response rating: 500 g ai/ha, 0 to 100 scale where 0 is no effect and 100 is complete control
Outline: as §1

sedge, umbrella [22] = assay: Test B flooded paddy test; assay type: in vivo, Cyperus difformis; details: Flood, 250 g ai/ha; 0 to 100 scale where 0 is no effect and 100 is complete control
Outline: as §3

FC(F)c1cccc(Oc2ncc(Br)cn2)c1-n1cc(I)cn1 [Compound 185]
Morningglory plant response rating (0 to 100 scale) (morningglory [1]): 10 | Morningglory plant response rating (morningglory [1]): 30 | Pigweed plant response rating (pigweed [2]): 100 | Plant response rating, Pigweed (pigweed [2]): 100 | Morningglory plant response rating (morningglory [3]): 70 | Plant response rating, Morningglory (morningglory [3]): 90 | Corn plant response rating (corn [4]): 10 | Plant response rating, Corn (corn [4]): 20 | Plant response rating, Barnyardgrass (barnyardgrass [5]; 31 g ai/ha): 0 | Plant response rating, Barnyardgrass (barnyardgrass [5]; 62 g ai/ha): 0 | Plant response rating, Barnyardgrass (barnyardgrass [5]; 125 g ai/ha): 0 | Plant response rating, Barnyardgrass (barnyardgrass [5]; 250 g ai/ha): 0 | Barnyardgrass plant response rating (0 to 100 scale, 0 is no effect, 100 is complete control) (barnyardgrass [6]): 40 | Barnyardgrass plant response rating (barnyardgrass [6]): 80 | Wheat plant response rating (0 to 100 scale) (wheat [7]): 0 | Wheat plant response rating (wheat [7]): 10 | Wheat plant response rating (wheat [8]): 0 | Plant response rating, Wheat (wheat [8]): 40 | Plant response rating, Ducksalad (ducksalad; 31 g ai/ha): 0 | Plant response rating, Ducksalad (ducksalad; 62 g ai/ha): 0 | Plant response rating, Ducksalad (ducksalad; 125 g ai/ha): 0 | Plant response rating, Ducksalad (ducksalad; 250 g ai/ha): 40 | Plant response rating, Ducksalad (Heteranthera limosa): 95 | Plant response rating, Rice (rice [9]): 0 | Pigweed plant response rating (0 to 100 scale) (pigweed [10]): 100 | Pigweed plant response rating (pigweed [10]): 100 | Corn plant response rating (0 to 100 scale) (corn [11]): 0 | Corn plant response rating (corn [11]): 10 | Plant response rating, Sedge, Umbrella (sedge, umbrella [12]; 31 g ai/ha): 0 | Plant response rating, Sedge, Umbrella (sedge, umbrella [12]; 62 g ai/ha): 50 | Plant response rating, Sedge, Umbrella (sedge, umbrella [12]; 125 g ai/ha): 50 | Plant response rating, Sedge, Umbrella (sedge, umbrella [12]; 250 g ai/ha): 85 | Crabgrass, Large plant response rating (large (Lg) crabgrass [13]): 60 | Plant response rating, Crabgrass, Large (large (Lg) crabgrass [13]): 90 | Barnyardgrass plant response rating (barnyardgrass [14]): 50 | Plant response rating, Barnyardgrass (barnyardgrass [14]): 80 | Velvetleaf plant response rating (0 to 100 scale) (velvetleaf [15]): 40 | Velvetleaf plant response rating (velvetleaf [15]): 80 | Crabgrass, Large plant response rating (0 to 100 scale) (large (Lg) crabgrass [16]): 90 | Crabgrass, Large plant response rating (large (Lg) crabgrass [16]): 100 | Plant response rating, Rice (rice [17]; 31 g ai/ha): 0 | Plant response rating, Rice (rice [17]; 62 g ai/ha): 0 | Plant response rating, Rice (rice [17]; 125 g ai/ha): 0 | Plant response rating, Rice (rice [17]; 250 g ai/ha): 15 | Plant response rating, Barnyardgrass (barnyardgrass [18]): 0 | Velvetleaf plant response rating (velvetleaf [19]): 90 | Plant response rating, Velvetleaf (velvetleaf [19]): 100 | Foxtail, Giant plant response rating (giant foxtail [20]): 50 | Plant response rating, Foxtail, Giant (giant foxtail [20]): 80 | Foxtail, Giant plant response rating (0 to 100 scale) (giant foxtail [21]): 90 | Foxtail, Giant plant response rating (giant foxtail [21]): 100 | Plant response rating, Sedge, Umbrella (sedge, umbrella [22]): 90

FC(F)c1cccc(Oc2ncc(Br)cn2)c1-n1cc(Br)cn1 [Compound 231]
Morningglory plant response rating (0 to 100 scale) (morningglory [1]): 0 | Morningglory plant response rating (morningglory [1]): 30 | Pigweed plant response rating (pigweed [2]): 100 | Plant response rating, Pigweed (pigweed [2]): 100 | Morningglory plant response rating (morningglory [3]): 30 | Plant response rating, Morningglory (morningglory [3]): 90 | Corn plant response rating (corn [4]): 20 | Plant response rating, Corn (corn [4]): 90 | Plant response rating, Barnyardgrass (barnyardgrass [5]; 31 g ai/ha): 0 | Plant response rating, Barnyardgrass (barnyardgrass [5]; 62 g ai/ha): 0 | Plant response rating, Barnyardgrass (barnyardgrass [5]; 125 g ai/ha): 0 | Plant response rating, Barnyardgrass (barnyardgrass [5]; 250 g ai/ha): 0 | Barnyardgrass plant response rating (0 to 100 scale, 0 is no effect, 100 is complete control) (barnyardgrass [6]): 20 | Barnyardgrass plant response rating (barnyardgrass [6]): 100 | Wheat plant response rating (0 to 100 scale) (wheat [7]): 0 | Wheat plant response rating (wheat [7]): 20 | Wheat plant response rating (wheat [8]): 20 | Plant response rating, Wheat (wheat [8]): 50 | Plant response rating, Ducksalad (ducksalad; 31 g ai/ha): 0 | Plant response rating, Ducksalad (ducksalad; 62 g ai/ha): 30 | Plant response rating, Ducksalad (ducksalad; 125 g ai/ha): 70 | Plant response rating, Ducksalad (ducksalad; 250 g ai/ha): 75 | Plant response rating, Ducksalad (Heteranthera limosa): 80 | Plant response rating, Rice (rice [9]): 30 | Pigweed plant response rating (0 to 100 scale) (pigweed [10]): 90 | Pigweed plant response rating (pigweed [10]): 100 | Corn plant response rating (0 to 100 scale) (corn [11]): 0 | Corn plant response rating (corn [11]): 20 | Plant response rating, Sedge, Umbrella (sedge, umbrella [12]; 31 g ai/ha): 0 | Plant response rating, Sedge, Umbrella (sedge, umbrella [12]; 62 g ai/ha): 50 | Plant response rating, Sedge, Umbrella (sedge, umbrella [12]; 125 g ai/ha): 70 | Plant response rating, Sedge, Umbrella (sedge, umbrella [12]; 250 g ai/ha): 80 | Crabgrass, Large plant response rating (large (Lg) crabgrass [13]): 70 | Plant response rating, Crabgrass, Large (large (Lg) crabgrass [13]): 90 | Barnyardgrass plant response rating (barnyardgrass [14]): 40 | Plant response rating, Barnyardgrass (barnyardgrass [14]): 90 | Velvetleaf plant response rating (0 to 100 scale) (velvetleaf [15]): 0 | Velvetleaf plant response rating (velvetleaf [15]): 100 | Crabgrass, Large plant response rating (0 to 100 scale) (large (Lg) crabgrass [16]): 90 | Crabgrass, Large plant response rating (large (Lg) crabgrass [16]): 100 | Plant response rating, Rice (rice [17]; 31 g ai/ha): 0 | Plant response rating, Rice (rice [17]; 62 g ai/ha): 0 | Plant response rating, Rice (rice [17]; 125 g ai/ha): 0 | Plant response rating, Rice (rice [17]; 250 g ai/ha): 0 | Plant response rating, Barnyardgrass (barnyardgrass [18]): 20 | Velvetleaf plant response rating (velvetleaf [19]): 100 | Plant response rating, Velvetleaf (velvetleaf [19]): 100 | Foxtail, Giant plant response rating (giant foxtail [20]): 70 | Plant response rating, Foxtail, Giant (giant foxtail [20]): 90 | Foxtail, Giant plant response rating (0 to 100 scale) (giant foxtail [21]): 90 | Foxtail, Giant plant response rating (giant foxtail [21]): 100 | Plant response rating, Sedge, Umbrella (sedge, umbrella [22]): 80

— US9695155B2, “Herbicidal substituted pyrimidinyloxy benzene compounds” (E. I. DU PONT DE NEMOURS AND COMPANY, priority 2013, dated 2017)
